The results in this text go back to patent US7504400B2, “MTP inhibiting aryl piperydines or piperazines substituted with 5-membered heterocycles” (Janssen Pharmaceutica N.V., priority 2004, dated 2009).

The term IC50 denotes the concentration that inhibits the measured activity by half.

For the assay, the system named is Secretion of ApoB. Kind of assay: Quantification of the secretion of ApoB in HepG2 cells. Type of assay: cell-based. The note with it: Homo sapiens, HepG2, 24 h, 24 hours of incubation with test compound, immunoprecipitation of apoB from medium, read-out: pIC50 value (=-log IC50 value), secretion of ApoB (converted). As to the method:
HepG2 cells were cultured in 24-well plates in MEM Rega 3 containing 10% fetal calf serum. At 70% confluency, the medium was changed and the test compound or carrier (DMSO, 0.4% final concentration) was added. After 24 hours of incubation, the medium was transferred to Eppendorf tubes and cleared by centrifugation. A sheep antibody directed against either apoB was added to the supernatant and the mixture was kept at 8° C. for 24 hours. Then, rabbit anti-sheep antibody was added and the immune complex was allowed to precipitate for 24 hours at 8° C. The immunoprecipitate was pelleted by centrifugation for 25 minutes at 1320 g and washed twice with a buffer containing 40 mM Mops, 40 mM NaH2PO4, 100 mM NaF, 0.2 mM DTT, 5 mM EDTA, 5 mM EGTA, 1% Triton-X-100, 0.5% sodium deoxycholate (DOC), 0.1% SDS, 0.2 μM leupeptin and 0.2 μM PMSF. Radioactivity in the pellet was quantified by liquid scintillation-counting. The IC50 values are usually converted to pIC50 values (=−log IC50 value) for ease of use.
For the compound `CC(C)n1ncn(-c2ccc(N3CCN(C(C(=O)N(C)C)c4ccccc4)CC3)cc2)c1=O` (stereo not drawn) [Compound 137], the IC50 is 316 to 3160 nM.
Then `O=C(NCc1ccccc1)C(c1ccccc1)C1CCN(c2ccc(-n3cnn(CC4CC4)c3=O)cc2)CC1` (stereo not drawn) [Compound 182], with 31.6 to 316 nM; and `CC(C)n1ncn(-c2ccc(N3CCN(C(C(=O)NCc4cccc(C(F)(F)F)c4)c4ccccc4)CC3)cc2)c1=O` (stereo not drawn) [Compound 77], with 31.6 to 316 nM.
With `CCOC(=O)c1cc(NC(=O)CC2CCN(c3ccc(-n4cnn(C(C)C)c4=O)cc3)CC2)ccc1C` [Compound 372], the IC50 is 316 to 3160 nM.
The value for `CCOC(=O)[C@H](CC(C)C)NC(=O)CC1CCN(c2ccc(-n3cnn(C(C)c4ccccc4)c3=O)cc2)CC1` (stereo partly drawn) [Compound 398] was 316 to 3160 nM.
On to `CC(C)n1ccn(-c2ccc(N3CCN(C(C(=O)Nc4ccc5c(c4)CCC5)c4ccccc4)CC3)cc2)c1=O` (stereo not drawn) [Compound 205], for which the IC50 was less than 31.6 nM.
Consider `CCCCn1ncn(-c2ccc(N3CCC(C(C(=O)NCCC)c4ccccc4)CC3)cc2)c1=O` (stereo not drawn) [Compound 150], for which the IC50 was 31.6 to 316 nM.
For the compound `CCOC(=O)C(c1ccccc1)C1CCN(c2ccc(-n3ccn([C@@H](C)c4ccc5ccccc5c4)c3=O)cc2)CC1` (stereo partly drawn) [Compound 251], the IC50 was 316 to 3160 nM.
The value for `COc1cc(CNC(=O)C(c2ccccc2)N2CCN(c3ccc(-n4cnn(C(C)C)c4=O)cc3)CC2)cc(OC)c1OC` (stereo not drawn) [Compound 78] was 316 to 3160 nM; that for `COc1ccc(NC(=O)C(c2ccccc2)N2CCN(c3ccc(-n4cnn(C(C)C)c4=O)cc3)CC2)c(OC)c1` (stereo not drawn) [Compound 184] was 31.6 to 316 nM.
Then `CCOC(=O)C(c1ccccc1)N1CCN(c2ccc(-n3ccn([C@H](C)c4ccccc4)c3=O)c(C)c2)CC1` (stereo partly drawn) [Compound 297], with 31.6 to 316 nM; and `CCOC(=O)C(c1ccccc1)C1CCN(c2ccc(-n3ccn([C@H](C)c4ccc(Cl)cc4)c3=O)cc2)CC1` (stereo partly drawn) [Compound 255], with 31.6 to 316 nM; and `CCOC(=O)C(c1ccccc1)N1CCC(c2ccc(-n3ccn([C@H](C)c4ccccc4F)c3=O)cc2)CC1` (stereo partly drawn) [Compound 278], with 31.6 to 316 nM.
The value for `CCOC(=O)[C@H](c1ccccc1)N1CCN(c2ccc(-n3ccn(C(C)c4ccc(F)cc4F)c3=O)cc2)CC1` (stereo in doubt) [Compound 339] was 31.6 to 316 nM; that for `CCCCNC(=O)C(CN1CCN(c2ccc(-n3cnn(C(C)C)c3=O)cc2)CC1)c1ccccc1` (stereo not drawn) [Compound 106] was 31.6 to 316 nM.
For `CC(C)n1ncn(-c2ccc(N3CCN(C(C(=O)NCCC#N)c4ccccc4)CC3)nc2)c1=O` (stereo not drawn) [Compound 50], the IC50 was 316 to 3160 nM.
On to `CC(C)n1ncn(-c2ccc(N3CCN(CCC(C(=O)NCc4ccccc4)c4ccccc4)CC3)cc2)c1=O` (stereo not drawn) [Compound 162], for which the IC50 was 316 to 3160 nM.
The value for `CCCNC(=O)C(c1ccccc1)N1CCN(c2ccc(-n3c(-c4ccccc4)nn(C(C)C)c3=O)cc2)CC1` (stereo not drawn) [Compound 32] was 316 to 3160 nM.
The value for `CCOC(=O)C(c1ccccc1)N1CCC(c2ccc(-n3ccn([C@H](C)c4ccc(Cl)cc4)c3=O)cc2)CC1` (stereo partly drawn) [Compound 235] was 31.6 to 316 nM; that for `CCCCn1ncn(-c2ccc(N3CCC(C(C(=O)NCc4ccccc4)c4ccccc4)CC3)cc2)c1=O` (stereo not drawn) [Compound 156] was 31.6 to 316 nM; that for `CCC(C)n1ncn(-c2ccc(N3CCN(C(C(=O)N(C)C)c4ccccc4)CC3)cc2)c1=O` (stereo not drawn) [Compound 24] was 31.6 to 316 nM.
Consider `CCOC(=O)[C@@H](c1ccccc1)N1CCN(c2ccc(-n3ccn([C@@H](C)c4cc(C(F)(F)F)cc(C(F)(F)F)c4)c3=O)cc2)CC1` (relative stereo) [Compound 274], for which the IC50 is 316 to 3160 nM.
The value for `CC(C)n1ncn(-c2ccc(N3CCN(C(C(=O)NCc4cccc5ccccc45)c4ccccc4)CC3)cc2)c1=O` (stereo not drawn) [Compound 83] was 31.6 to 316 nM; that for `CCOC(=O)CC(NC(=O)C(c1ccccc1)N1CCN(c2ccc(N3CCN(C(C)C)C3=O)cc2)CC1)c1ccc2c(c1)OCO2` (stereo not drawn) [Compound 359] was 316 to 3160 nM.
Consider `CCOC(=O)[C@@H](c1ccccc1)N1CCN(c2ccc(-n3cnn([C@@H](C)c4ccccc4)c3=O)cc2)CC1` (relative stereo) [Compound 281], for which the IC50 is 31.6 to 316 nM.
Then `CCOC(=O)C(c1ccccc1)N1CCC(c2ccc(-n3ccn([C@H](C)c4cccc(OC)c4)c3=O)cc2)CC1` (stereo partly drawn) [Compound 237], with 31.6 to 316 nM; and `CC(C)n1ncn(-c2ccc(N3CCN(C(C(=O)NCCCN(C)c4ccccc4)c4ccccc4)CC3)cc2)c1=O` (stereo not drawn) [Compound 84], with 316 to 3160 nM; and `CCOC(=O)c1ccc(CNC(=O)CC2CCN(c3ccc(-n4cnn(C(C)c5ccccc5)c4=O)cc3)CC2)cc1C` (stereo not drawn) [Compound 377], with 31.6 to 316 nM.
`CCOC(=O)c1ccc(CNC(=O)C(c2ccccc2)C2CCN(c3ccc(-n4cnn(C(C)C)c4=O)cc3)CC2)cc1C` (stereo not drawn) [Compound 376]: the IC50 is 31.6 to 316 nM.
`COC(=O)C(c1ccccc1Cl)N1CCN(c2ccc(-n3cnn(C(C)C)c3=O)cc2)CC1` (stereo not drawn) [Compound 325]: the IC50 was 31.6 to 316 nM.
In the case of `CCOC(=O)C(c1ccccc1)N1CCC(c2ccc(-n3ccn([C@@H](C)c4ccc(F)cc4)c3=O)cc2)CC1` (stereo partly drawn) [Compound 223], the IC50 was 316 to 3160 nM.
For the compound `CC(c1ccccc1)n1ncn(-c2ccc(N3CCN(C(C(=O)Nc4ccc5c(c4)CCC5)c4ccccc4)CC3)cc2)c1=O` (stereo not drawn) [Compound 208], the IC50 was 316 to 3160 nM.
Then `COC(=O)C(c1ccccc1)(c1ccccc1)N1CCN(c2ccc(-n3cnn(C(C)C)c3=O)cc2)CC1` [Compound 173], with 31.6 to 316 nM.
The value for `CCOC(=O)C(c1ccccc1)C1CCN(c2ccc(-n3ccn([C@H](C)C4CCCCC4)c3=O)cc2)CC1` (stereo partly drawn) [Compound 262] was 31.6 to 316 nM; that for `CCOC(=O)[C@@H](c1ccccc1)N1CCN(c2ccc(-n3cnn([C@@H](C)c4ccc(F)cc4)c3=O)cc2)CC1` (relative stereo) [Compound 299] was 31.6 to 316 nM; that for `CCOC(=O)[C@@H](NC(=O)CC1CCN(c2ccc(-n3cnn(C(C)c4ccccc4)c3=O)cc2)CC1)C(C)C` (stereo partly drawn) [Compound 392] was 316 to 3160 nM.
Then `COC(=O)C(c1ccccc1)N1CCN(c2ccc(-n3c(-c4ccccc4)nn(C(C)C)c3=O)cc2)CC1` (stereo not drawn) [Compound 35], with 316 to 3160 nM; and `Cc1cc(N2CCN(C(C(=O)Nc3ccc4c(c3)CCC4)c3ccccc3)CC2)ccc1-n1ccn(C(C)C)c1=O` (stereo not drawn) [Compound 214], with less than 31.6 nM; and `CCOC(=O)C(c1ccccc1)N1CCN(c2ccc(-n3cnn(C(C)c4ccccc4F)c3=O)cc2)CC1` (stereo not drawn) [Compound 350], with 31.6 to 316 nM.
Consider `CC(=O)N1CCc2ccc(NC(=O)C(c3ccccc3)N3CCN(c4ccc(-n5cnn(C(C)C)c5=O)cc4)CC3)cc21` (stereo not drawn) [Compound 202], for which the IC50 is 31.6 to 316 nM.
For `CCOC(=O)c1cc(CNC(=O)C(Cc2ccccc2)C2CCN(c3ccc(-n4cnn(C(C)C)c4=O)cc3)CC2)ccc1C` (stereo not drawn) [Compound 384], the IC50 was 316 to 3160 nM.
The value for `CCOC(=O)C(c1ccccc1)N1CCN(c2ccc(-n3cnn(C(C)C)c3=O)c(C)c2)CC1` (stereo not drawn) [Compound 217] was 31.6 to 316 nM; that for `CCOC(=O)C(c1ccccc1)N1CCN(c2ccc(N3CCN(C(C)C)C3=O)c(C)c2)CC1` (stereo not drawn) [Compound 219] was 316 to 3160 nM.
Then `COc1cccc(NC(=O)C(c2ccccc2)N2CCN(c3ccc(-n4cnn(C(C)C)c4=O)cc3)CC2)c1` (stereo not drawn) [Compound 61], with 31.6 to 316 nM; and `CCCNC(=O)C(CN1CCN(c2ccc(-n3cnn(C(C)C)c3=O)cc2)CC1)c1ccccc1` (stereo not drawn) [Compound 128], with 31.6 to 316 nM; and `CC(C)n1cnn(-c2ccc(N3CCN(C(C(=O)NCC(F)(F)F)c4ccccc4)CC3)cc2)c1=O` (stereo not drawn) [Compound 122], with 316 to 3160 nM.
The value for `CCOC(=O)C(c1ccccc1)C1CCN(c2ccc(-n3ccn([C@@H](C)c4ccc(Cl)cc4)c3=O)cc2)CC1` (stereo partly drawn) [Compound 256] was 316 to 3160 nM; that for `CC(C)CNC(=O)C(CN1CCN(c2ccc(-n3cnn(C(C)C)c3=O)cc2)CC1)c1ccccc1` (stereo not drawn) [Compound 107] was 316 to 3160 nM; that for `CCOC(=O)C(c1ccccc1)N1CCC(c2ccc(-n3ccn([C@@H](C)c4ccc(C)cc4)c3=O)cc2)CC1` (stereo partly drawn) [Compound 234] was 316 to 3160 nM.
Consider `CC(C)n1ncn(-c2ccc(N3CCN(C(C(=O)NCc4ccccc4)c4ccccc4)CC3)nc2)c1=O` (stereo not drawn) [Compound 48], for which the IC50 is 31.6 to 316 nM.
Then `Cc1cccc(NC(=O)C(c2ccccc2)N2CCN(c3ccc(-n4cnn(C(C)C)c4=O)cc3)CC2)c1` (stereo not drawn) [Compound 57], with 31.6 to 316 nM.
The value for `COC(=O)c1ccc(CNC(=O)C(c2ccccc2)N2CCC(c3ccc(-n4cnn(C(C)C)c4=O)cc3)CC2)cc1` (stereo not drawn) [Compound 295] was 31.6 to 316 nM; that for `Cc1cc(C)cc(NC(=O)C(c2ccccc2)N2CCN(c3ccc(-n4cnn(C(C)C)c4=O)cc3)CC2)c1` (stereo not drawn) [Compound 60] was 31.6 to 316 nM.
Then `COC(=O)C(c1cccc(Cl)c1)N1CCC(c2ccc(-n3cnn(C(C)C)c3=O)cc2)CC1` (stereo not drawn) [Compound 320], with 316 to 3160 nM.
`CC(C)n1ncn(-c2ccc(N3CCN(C(C(=O)Nc4ccc5c(c4)CCN(C(=O)OC(C)(C)C)C5)c4ccccc4)CC3)cc2)c1=O` (stereo not drawn) [Compound 305]: the IC50 was 31.6 to 316 nM.
Turning to `CCCNC(=O)C(c1ccccc1)N1CCN(c2ccc(-n3ncn(C(C)C)c3=O)cc2)CC1` (stereo not drawn) [Compound 114], the IC50 was 316 to 3160 nM.
With `CC(C)n1ncn(-c2ccc(N3CCN(C(C(=O)Nc4cccc(C(F)(F)F)c4)c4ccccc4)CC3)cc2)c1=O` (stereo not drawn) [Compound 58], the IC50 was 31.6 to 316 nM.
